Tests used:
[1] = aqueous solubility; assay type: physicochemical; settings: water; at room temperature
[2] = tissue irritation at the intramuscular injection site; assay type: in vivo; settings: intramuscular (IM) injectable solution in water-miscible co-solvent and water-immiscible solvent/co-solvent systems

- solubility [1]: < 1 µg/mL
SMILES: O=C1CCc2ccc(OCCCCN3CCN(c4cccc(Cl)c4Cl)CC3)cc2N1 [Aripiprazole]
- tissue irritation at the muscular site [2]: unacceptable (moderate to severe) tissue irritation

Reference: patent US8999952B2, “Aripiprazole complex formulation and method” (Otsuka Pharmaceutical Co., Ltd., priority 2002, dated 2015)
